Data from patent US20230066882A1, “Stable Reporter Flavivirus” (priority 2021, published 2023).

Test system: panel of stable reporter viruses (DENV1, DENV2, DENV3, DENV4, ZIKV, YFV, JEV)
Format: cell-based

In the case of C#C[C@@]1(O)[C@H](O)[C@@H](CO)O[C@H]1n1ccc2c(N)ncnc21 [NITD008], the EC50 values is reported as “potent” and the “luciferase expression compared to control” value is reported as “decreased luciferase expression”.
